Source: PubChem BioAssay AID330 (DTP/NCI, 2004)
Where “and” joins values, the source holds several entries; their conditions need not be identical. Equal entries are not always repeated. Inconclusive results and toxic doses are left out. The calls were made as follows: active = survival T/C of 150% or more; inactive = T/C below 125% in these data.

System: P388 leukemia ip, CD2F1 mice, survival T/C
Assay: NCI In Vivo Anticancer Drug Screen. Data for tumor model P388 Leukemia (intraperitoneal) in CD2F1 (CDF1) mice
Conditions: endpoint: median survival time, higher = longer survival
In short: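 Mice carrying the transplanted tumor received test compound or vehicle. Survival was recorded in each group, and the value is the treated-group measurement divided by that of the vehicle-treated control group.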

[1] = dose: 50.0 mg/kg/injection, schedule: Q01DX005 (ip), vehicle: Klucel (hydroxypropylcellulose) (HPC)
[2] = dose: 100.0 mg/kg/injection, schedule: Q01DX005 (ip), vehicle: Klucel (hydroxypropylcellulose) (HPC)
[3] = dose: 200.0 mg/kg/injection, schedule: Q01DX005 (ip), vehicle: Klucel (hydroxypropylcellulose) (HPC)
[4] = dose: 50.0 mg/kg/injection, schedule: Q01DX009 (ip), vehicle: Klucel (hydroxypropylcellulose) (HPC)
[5] = dose: 100.0 mg/kg/injection, schedule: Q01DX009 (ip), vehicle: Klucel (hydroxypropylcellulose) (HPC)
[6] = dose: 200.0 mg/kg/injection, schedule: Q01DX009 (ip), vehicle: Klucel (hydroxypropylcellulose) (HPC)
[7] = dose: 50.0 mg/kg/injection, schedule: Q04DX002 (ip), vehicle: saline
[8] = dose: 30.0 mg/kg/injection, schedule: Q01DX005 (ip), vehicle: saline with Tween-80
[9] = dose: 50.0 mg/kg/injection, schedule: Q01DX009 (ip), vehicle: saline with Tween-80
[10] = dose: 100.0 mg/kg/injection, schedule: Q01DX009 (ip), vehicle: saline with Tween-80
[11] = dose: 100.0 mg/kg/injection, schedule: Q04DX002 (ip), vehicle: saline
[12] = dose: 200.0 mg/kg/injection, schedule: Q04DX002 (ip), vehicle: saline
[13] = dose: 100.0 mg/kg/injection, schedule: Q04DX003 (ip), vehicle: Klucel (hydroxypropylcellulose) (HPC)
[14] = dose: 400.0 mg/kg/injection, schedule: Q04DX003 (ip), vehicle: Klucel (hydroxypropylcellulose) (HPC)

Measured: T/C

COc1ccc2sc(-c3ccccc3)cc(=O)c2c1
inactive: [1] 100 % of control | [2] 101 % of control | [3] 101 % of control

C/C=C1/CN2CCC34c5ccccc5N(C)C23C(OC(C)=O)CC1C4(CO)C(=O)OC (centres undefined)
inactive: dose: 2.25 mg/kg/injection, schedule: Q01DX005 (ip), vehicle: saline + Tween-80 + alcohol 120 % of control | dose: 4.5 mg/kg/injection, schedule: Q01DX005 (ip), vehicle: saline + Tween-80 + alcohol 103 % of control | dose: 9.0 mg/kg/injection, schedule: Q01DX005 (ip), vehicle: saline + Tween-80 + alcohol 106 % of control | dose: 18.0 mg/kg/injection, schedule: Q01DX005 (ip), vehicle: saline + Tween-80 + alcohol 104 % of control

CCCN1CC=CCC1
inactive: dose: 60.0 mg/kg/injection, schedule: Q01DX005 (ip), vehicle: saline 100 % of control | dose: 120.0 mg/kg/injection, schedule: Q01DX005 (ip), vehicle: saline 100 % of control | dose: 240.0 mg/kg/injection, schedule: Q01DX005 (ip), vehicle: saline 100 % of control

Cc1c(N2CCCC2)cc2c(c1NC(=O)c1ccccc1Cl)C(C)(C)CC2(C)C
inactive: [4] 99 % of control | [5] 100 % of control | [6] 99 % of control

CN=C(N)N/N=C/c1ccc(-c2ccccc2)cc1
inactive: dose: 25.0 mg/kg/injection, schedule: Q04DX002 (ip), vehicle: saline 105 % of control | [7] 111 % of control

O=C1c2ccccc2C(=O)N1c1ccccc1
inactive: dose: 100.0 mg/kg/injection, schedule: Q01DX001 (ip), vehicle: Klucel (hydroxypropylcellulose) (HPC) 99 % of control | dose: 200.0 mg/kg/injection, schedule: Q01DX001 (ip), vehicle: Klucel (hydroxypropylcellulose) (HPC) 100 % of control | dose: 400.0 mg/kg/injection, schedule: Q01DX001 (ip), vehicle: Klucel (hydroxypropylcellulose) (HPC) 100 % of control

O=P1(c2ccccc2)OCC2=C(c3ccccc3)CC2=C1c1ccccc1 (centres undefined)
inactive: [4] 105 % of control | [5] 103 % of control | [6] 105 % of control

O=c1c2ccccc2sc2c([N+](=O)[O-])ccc(NCCCC3CCCN4CCCCC34)c12 (centres undefined)
inactive: dose: 31.9 mg/kg/injection, schedule: Q01DX005 (ip), vehicle: saline with Tween-80 100 % of control | dose: 63.8 mg/kg/injection, schedule: Q01DX005 (ip), vehicle: saline with Tween-80 102 % of control | dose: 127.5 mg/kg/injection, schedule: Q01DX005 (ip), vehicle: saline with Tween-80 110 % of control

CCC1c2ccc3cc(OC)ccc3c2CCC1(C)C(=O)O (centres undefined)
inactive: [1] 100 % of control | [2] 98 % of control | [3] 100 % of control

NC(CS)=NCC12CC3CC(CC(C3)C1)C2
inactive: dose: 7.5 mg/kg/injection, schedule: Q01DX005 (ip), vehicle: saline with Tween-80 100 % of control | dose: 15.0 mg/kg/injection, schedule: Q01DX005 (ip), vehicle: saline with Tween-80 100 % of control | [8] 115 % of control

CCOC(=O)c1cc(N)c(C(=O)OCC)cc1N
inactive: [9] 97 % of control | [10] 86 % of control and 96 % of control | dose: 200.0 mg/kg/injection, schedule: Q01DX009 (ip), vehicle: saline with Tween-80 96 % of control and 97 % of control | dose: 400.0 mg/kg/injection, schedule: Q01DX009 (ip), vehicle: saline with Tween-80 92 % of control and 96 % of control

N#Cc1ccc(NC(=O)Nc2cccc(C#N)c2)cc1
inactive: [8] 100 % of control and 103 % of control | dose: 60.0 mg/kg/injection, schedule: Q01DX005 (ip), vehicle: saline with Tween-80 89 % of control and 92 % of control and 94 % of control | dose: 120.0 mg/kg/injection, schedule: Q01DX005 (ip), vehicle: saline with Tween-80 91 % of control and 94 % of control | dose: 240.0 mg/kg/injection, schedule: Q01DX005 (ip), vehicle: saline with Tween-80 94 % of control

CCCCCCCCCCCCS(=O)(=O)CC(Br)C(=O)c1ccco1 (centres undefined)
inactive: [11] 100 % of control | [12] 100 % of control | dose: 400.0 mg/kg/injection, schedule: Q04DX002 (ip), vehicle: saline 100 % of control

C=Cc1c2[n-]c(c1C)/C=C1\[N-]/C(=C3\c4[n-]c(c(C)c4C(=O)C3C(=O)O)/C=c3\[n-]/c(c(C)c3CC)=C\2)C(CCC(=O)O)C1C.[Pt+4] (centres undefined)
inactive: [7] 100 % of control | [11] 90 % of control | [12] 88 % of control

O=C1CC(c2ccccc2)C(c2ccccc2)CO1 (centres undefined)
inactive: dose: 25.0 mg/kg/injection, schedule: Q04DX003 (ip), vehicle: Klucel (hydroxypropylcellulose) (HPC) 91 % of control | dose: 50.0 mg/kg/injection, schedule: Q04DX003 (ip), vehicle: Klucel (hydroxypropylcellulose) (HPC) 92 % of control | [13] 88 % of control and 92 % of control | [14] 87 % of control

O=C1CN(c2ccccc2)C(=O)CN1Nc1ccccc1
inactive: [9] 93 % of control | [10] 93 % of control

CCCCCCCn1cnc2cc(N3CCOCC3)c([N+](=O)[O-])cc2c1=O
inactive: [13] 102 % of control | dose: 200.0 mg/kg/injection, schedule: Q04DX003 (ip), vehicle: Klucel (hydroxypropylcellulose) (HPC) 95 % of control | [14] 100 % of control

O=S(=O)(O)c1cncc(S(=O)(=O)O)n1
inactive: dose: 100.0 mg/kg/injection, schedule: Q01DX009 (ip), vehicle: saline 110 % of control | dose: 100.0 mg/kg/injection, schedule: Q04DX003 (ip), vehicle: saline 100 % of control | dose: 200.0 mg/kg/injection, schedule: Q01DX009 (ip), vehicle: saline 105 % of control | dose: 200.0 mg/kg/injection, schedule: Q04DX003 (ip), vehicle: saline 104 % of control | dose: 400.0 mg/kg/injection, schedule: Q01DX009 (ip), vehicle: saline 100 % of control | dose: 400.0 mg/kg/injection, schedule: Q04DX003 (ip), vehicle: saline 100 % of control

COc1cccc2c1C(=O)c1c(OC)c(C=O)cc(OC)c1C2=O
inactive: dose: 50.0 mg/kg/injection, schedule: Q01DX009 (ip), vehicle: water 99 % of control | dose: 100.0 mg/kg/injection, schedule: Q01DX009 (ip), vehicle: water 100 % of control | dose: 200.0 mg/kg/injection, schedule: Q01DX009 (ip), vehicle: water 98 % of control

FC(F)(F)c1cc(NC(=S)SCc2ccc(Cl)cc2)ccc1Cl
inactive: dose: 50.0 mg/kg/injection, schedule: Q01DX009 (ip), vehicle: suspension in saline 103 % of control | dose: 100.0 mg/kg/injection, schedule: Q01DX009 (ip), vehicle: suspension in saline 90 % of control | dose: 200.0 mg/kg/injection, schedule: Q01DX009 (ip), vehicle: suspension in saline 93 % of control

COC(=O)C1CC2(C(=O)O)CC(C(=O)O)(CC(C(=O)OC)C2=O)C1=O (centres undefined)
inactive: dose: 50.0 mg/kg/injection, schedule: Q04DX003 (ip), vehicle: saline with Tween-80 101 % of control | dose: 100.0 mg/kg/injection, schedule: Q04DX003 (ip), vehicle: saline with Tween-80 101 % of control | dose: 200.0 mg/kg/injection, schedule: Q04DX003 (ip), vehicle: saline with Tween-80 104 % of control

CC(=O)O[C@@H]1C(C(=O)[C@@H](C)C(C)C)OCOC1C1CC(=O)NC(=O)C1 (some centres undefined)
inactive: dose: 0.01 mg/kg/injection, schedule: Q01DX009 (ip), vehicle: distilled water + alcohol 100 % of control | dose: 0.03 mg/kg/injection, schedule: Q01DX009 (ip), vehicle: distilled water + alcohol 100 % of control | dose: 0.06 mg/kg/injection, schedule: Q01DX009 (ip), vehicle: distilled water + alcohol 93 % of control | dose: 0.12 mg/kg/injection, schedule: Q01DX009 (ip), vehicle: distilled water + alcohol 98 % of control

SC1(S)CCCN(Cc2ccccc2)C1
inactive: dose: 25.0 mg/kg/injection, schedule: Q01DX005 (ip), vehicle: saline 105 % of control | dose: 50.0 mg/kg/injection, schedule: Q01DX005 (ip), vehicle: saline 108 % of control | dose: 100.0 mg/kg/injection, schedule: Q01DX005 (ip), vehicle: saline 103 % of control | dose: 200.0 mg/kg/injection, schedule: Q01DX005 (ip), vehicle: saline 105 % of control

CCOC(=O)c1ccc(N2N=C3C(=CC(=O)c4ccccc43)SCC2=O)cc1
inactive: dose: 12.5 mg/kg/injection, schedule: Q01DX005 (ip), vehicle: saline with Tween-80 112 % of control | dose: 25.0 mg/kg/injection, schedule: Q01DX005 (ip), vehicle: saline with Tween-80 117 % of control | dose: 50.0 mg/kg/injection, schedule: Q01DX005 (ip), vehicle: saline with Tween-80 116 % of control
